# Data as given in US9040501B2, “Compositions and methods for treating cancer” (Eisai Inc., priority 2009, dated 2015).
# Assay: Stability in simulated gastric fluid at 37° C. (HPLC)
# Type: physicochemical
# Source text: […]. See Kararli, T. T. Comparison of the GI anatomy, physiology, and biochemistry of humans and commonly used laboratory animals. BioPharm & DrugDispos. 16:351-380, 1995, which is hereby wholly incorporated by reference. The gastric pH in fasted monkeys has been reported to have a similar range of 1-3. See Kondo, H. et al. Characteristics of the gastric pH profiles of unfed and fed cynomolgus monkeys as pharmaceutical product development subjects. BioPharm & DrugDispos. 24:45-51, 2003, which is hereby wholly incorporated by reference.
# Materials: Simulated gastric fluid (SGF) was prepared by mixing the following into 100 mL of HPLC grade (or purified) water: 200 mg of sodium chloride and 1.87 mL of a 37.52% HCl stock solution.
# The HPLC analyses were conducted using a Waters UPLC solvent delivery system with Corona CAD detection. The HPLC Column (Waters Atlantis HHS T3 2.1×100 mm, 1.8 um) was maintained at 40° C. and preequilibrated with a solution containing 98% water and 2% acetonitrile. The temperature controlled auto-sampler was maintained at 37° C. The flow rate for the Water/MeCN mobile phase was 0.65 mL/min, with a gradient following sample injection (5 μL) as follows: […]
# The Water/MeCN mobile phase was applied to the column with the above described flow rate and gradient and the HPLC chromatograms were collected. After 3.5 minutes, the column was reequilibrated with 98% water/2% MeCN for 1.5 minutes.
smiles,measurement,setting,value
"O=C1NCC=CCN1[C@@H]1O[C@H](CO)[C@@H](O)C1(F)F [ER-876437, 1-((2R,4R,5R)-3,3-difluoro-4-hydroxy-5-(hydroxymethyl)tetrahydrofuran-2-yl)-3,4-dihydro-1H-1,3-diazepin-2(7H)-one]",% ER-876437 (peak retention time: 2.90 min),"SGF at 37° C., analysis time 0:00:30",85.88%
same,% ER-876437 (peak retention time: 2.90 min),"SGF at 37° C., analysis time 0:06:08",85.72%
same,% ER-876437 (peak retention time: 2.90 min),"SGF at 37° C., analysis time 0:11:45",86.46%
same,% ER-876437 (peak retention time: 2.90 min),"SGF at 37° C., analysis time 0:17:24",86.38%
same,% ER-876437 (peak retention time: 2.90 min),"SGF at 37° C., analysis time 0:23:02",83.22%
same,% ER-876437 (peak retention time: 2.90 min),"SGF at 37° C., analysis time 0:28:39",83.48%
same,% ER-876437 (peak retention time: 2.90 min),"SGF at 37° C., analysis time 0:34:17",83.80%
same,% ER-876437 (peak retention time: 2.90 min),"SGF at 37° C., analysis time 0:39:54",84.16%
same,% ER-876437 (peak retention time: 2.90 min),"SGF at 37° C., analysis time 0:45:32",82.62%
same,% ER-876437 (peak retention time: 2.90 min),"SGF at 37° C., analysis time 0:51:10",82.41%
same,% ER-876437 (peak retention time: 2.90 min),"SGF at 37° C., analysis time 0:56:47",82.45%
same,% ER-876437 (peak retention time: 2.90 min),"SGF at 37° C., analysis time 1:02:26",82.45%
same,% ER-876437 (peak retention time: 2.90 min),"SGF at 37° C., analysis time 1:08:04",82.55%
same,% ER-876437 (peak retention time: 2.90 min),"SGF at 37° C., analysis time 1:13:41",83.11%
same,% ER-876437 (peak retention time: 2.90 min),"SGF at 37° C., analysis time 1:19:19",81.82%
same,% ER-876437 (peak retention time: 2.90 min),"SGF at 37° C., analysis time 1:24:56",81.24%
same,% ER-876437 (peak retention time: 2.90 min),"SGF at 37° C., analysis time 1:30:33",79.20%
same,% ER-876437 (peak retention time: 2.90 min),"SGF at 37° C., analysis time 1:36:10",79.14%
same,% ER-876437 (peak retention time: 2.90 min),"SGF at 37° C., analysis time 1:41:47",78.47%
same,% ER-876437 (peak retention time: 2.90 min),"SGF at 37° C., analysis time 1:47:24",77.88%
same,% ER-876437 (peak retention time: 2.90 min),"SGF at 37° C., analysis time 1:53:02",78.29%
same,% ER-876437 (peak retention time: 2.90 min),"SGF at 37° C., analysis time 1:58:39",78.56%
same,% ER-876437 (peak retention time: 2.90 min),"SGF at 37° C., analysis time 2:04:16",77.21%
same,% ER-876437 (peak retention time: 2.90 min),"SGF at 37° C., analysis time 2:21:12",76.06%
same,% ER-876437 (peak retention time: 2.90 min),"SGF at 37° C., analysis time 2:26:50",77.34%
same,% ER-876437 (peak retention time: 2.90 min),"SGF at 37° C., analysis time 2:49:21",75.34%
same,% ER-876437 (peak retention time: 2.90 min),"SGF at 37° C., analysis time 3:17:30",72.37%
same,% ER-876437 (peak retention time: 2.90 min),"SGF at 37° C., analysis time 3:51:16",50.13%
same,% ER-876437 (peak retention time: 2.90 min),"SGF at 37° C., analysis time 4:19:26",51.88%
same,% ER-876437 (peak retention time: 2.90 min),"SGF at 37° C., analysis time 4:47:38",48.95%
same,% ER-876437 (peak retention time: 2.90 min),"SGF at 37° C., analysis time 5:21:25",45.19%
same,% ER-876437 (peak retention time: 2.90 min),"SGF at 37° C., analysis time 5:49:35",47.44%
same,% ER-876437 (peak retention time: 2.90 min),"SGF at 37° C., analysis time 6:17:45",44.94%
same,% ER-876437 (peak retention time: 2.90 min),"SGF at 37° C., analysis time 6:51:31",43.29%
same,% ER-876437 (peak retention time: 2.90 min),"SGF at 37° C., analysis time 7:19:40",41.85%
same,% ER-876437 (peak retention time: 2.90 min),"SGF at 37° C., analysis time 7:47:22",41.72%
same,% ER-876437 (peak retention time: 2.90 min),"SGF at 37° C., analysis time 8:21:11",36.89%
same,% ER-876437 (peak retention time: 2.90 min),"SGF at 37° C., analysis time 8:49:19",37.52%
same,% ER-876437 (peak retention time: 2.90 min),"SGF at 37° C., analysis time 9:17:30",36.34%
same,% ER-876437 (peak retention time: 2.90 min),"SGF at 37° C., analysis time 9:51:17",34.61%
same,% ER-876437 (peak retention time: 2.90 min),"SGF at 37° C., analysis time 10:19:29",31.94%
same,% ER-876437 (peak retention time: 2.90 min),"SGF at 37° C., analysis time 10:47:39",32.33%
same,% ER-876437 (peak retention time: 2.90 min),"SGF at 37° C., analysis time 11:15:53",29.85%
same,% ER-876437 (peak retention time: 2.90 min),"SGF at 37° C., analysis time 11:49:44",29.94%
same,% ER-876437 (peak retention time: 2.90 min),"SGF at 37° C., analysis time 12:17:54",27.99%
same,% ER-876437 (peak retention time: 2.90 min),"SGF at 37° C., analysis time 12:46:10",27.39%
same,% ER-876437 (peak retention time: 2.90 min),"SGF at 37° C., analysis time 13:20:01",26.14%
same,% ER-876437 (peak retention time: 2.90 min),"analysis time 0:00:00, initial sample in water",92.18%
same,half-life,simulated gastric fluid (pH 1.45) at 37° C.,4 to 6 h
